Measurements: patent publication US8865623B2, “Herbicidally active cyclic diones and derivatives thereof, processes for their preparation, compositions, and method of controlling weeds” (Syngenta Limited, priority 2009, dated 2014)

Experiments:
Assay type in all cases: in vivo
Lolium perenne (LOLPE) [1] = assay: Pre-emergence herbicidal activity, glasshouse pot test; conditions: evaluated after 13 days; for pest or weed control at 250 g/ha: Lolium perenne, 312 h, Rate 250 g/ha, pre-emergence spray, read-out: Pre-emergence activity LOLPE (100=total damage to plant; 0=no damage to plant)
Summary of the method: (§1)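 After sowing in standard soil, pots were cultivated for one day (pre-emergence) or eight days (post-emergence), then sprayed. Plants were watered twice daily in the glasshouse, and damage was rated 13 days after treatment, 0 being none and 100 total.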

Avena fatua (AVEFA) [2] = assay: as above; conditions: evaluated after 13 days; for pest or weed control at 250 g/ha: Avena fatua, 312 h, Rate 250 g/ha, pre-emergence spray, read-out: Pre-emergence activity AVEFA (100=total damage to plant; 0=no damage to plant)
Summary of the method: as §1

[3] = tested on: Echinochloa crus-galli (ECHCG); assay: as above; conditions: evaluated after 13 days; for pest or weed control at 250 g/ha: Echinochloa crus-galli, 312 h, Rate 250 g/ha, pre-emergence spray, read-out: Pre-emergence activity ECHCG (100=total damage to plant; 0=no damage to plant)
Summary of the method: as §1

[4] = tested on: Alopecurus myosuroides (ALOMY); assay: as above; conditions: evaluated after 13 days; for pest or weed control at 250 g/ha: Alopecurus myosuroides, 312 h, Rate 250 g/ha, pre-emergence spray, read-out: Pre-emergence activity ALOMY (100=total damage to plant; 0=no damage to plant)
Summary of the method: as §1

Lolium perenne (LOLPE) [5] = assay: Post-emergence herbicidal activity, glasshouse pot test; conditions: rate 250 g/ha, evaluated after 13 days; for pest or weed control at 250 g/ha: Lolium perenne, 312 h, glasshouse, read-out: Post-emergence activity LOLPE (100=total damage to plant; 0=no damage to plant)
Summary of the method: as §1

Avena fatua (AVEFA) [6] = assay: as above; conditions: rate 250 g/ha, evaluated after 13 days; for pest or weed control at 250 g/ha: Avena fatua, 312 h, glasshouse, read-out: Post-emergence activity AVEFA (100=total damage to plant; 0=no damage to plant)
Summary of the method: as §1

[7] = tested on: Echinochloa crus-galli (ECHCG); assay: as above; conditions: rate 250 g/ha, evaluated after 13 days; for pest or weed control at 250 g/ha: Echinochloa crus-galli, 312 h, glasshouse, read-out: Post-emergence activity ECHCG (100=total damage to plant; 0=no damage to plant)
Summary of the method: as §1

[8] = tested on: Alopecurus myosuroides (ALOMY); assay: as above; conditions: rate 250 g/ha, evaluated after 13 days; for pest or weed control at 250 g/ha: Alopecurus myosuroides, 312 h, glasshouse, read-out: Post-emergence activity ALOMY (100=total damage to plant; 0=no damage to plant)
Summary of the method: as §1

| SMILES | pest or weed control at 250 g/ha (Lolium perenne (LOLPE) [1]) [%] | pest or weed control at 250 g/ha (Avena fatua (AVEFA) [2]) [%] | pest or weed control at 250 g/ha [3] [%] | pest or weed control at 250 g/ha [4] [%] | pest or weed control at 250 g/ha (Lolium perenne (LOLPE) [5]) [%] | pest or weed control at 250 g/ha (Avena fatua (AVEFA) [6]) [%] | pest or weed control at 250 g/ha [7] [%] | pest or weed control at 250 g/ha [8] [%] | LOLPE damage to plant (100=total damage to plant; 0=no damage to plant) (Lolium perenne (LOLPE) [1]; pre-emergence, rate 250 g/ha) | AVEFA damage to plant (100=total damage to plant; 0=no damage to plant) (Avena fatua (AVEFA) [2]; pre-emergence, rate 250 g/ha) | ECHCG damage to plant (100=total damage to plant; 0=no damage to plant) ([3]; pre-emergence, rate 250 g/ha) | ALOMY damage to plant (100=total damage to plant; 0=no damage to plant) ([4]; pre-emergence, rate 250 g/ha) | LOLPE damage to plant (100=total damage to plant; 0=no damage to plant) (Lolium perenne (LOLPE) [5]) | AVEFA damage to plant (100=total damage to plant; 0=no damage to plant) (Avena fatua (AVEFA) [6]) | ECHCG damage to plant (100=total damage to plant; 0=no damage to plant) [7] | ALOMY damage to plant (100=total damage to plant; 0=no damage to plant) [8] |
| --- | --- | --- | --- | --- | --- | --- | --- | --- | --- | --- | --- | --- | --- | --- | --- | --- |
| CCc1ccc(Oc2nc3ccc(C(F)(F)F)cc3s2)cc1C1=C(O)C(C)(C)OC(C)(C)C1=O [Example A-219] | 80 | 30 | 90 | 50 | 90 | 100 | 100 | 90 |  |  |  |  |  |  |  |  |
| CCc1ccc(Oc2ccc(Cl)cc2Cl)cc1C1=C(O)[C@H]2CC[C@H](C2)C1=O (single isomer, unassigned) [Example A-90] | 90 | 70 | 100 | 70 | 80 | 30 | 90 | 60 |  |  |  |  |  |  |  |  |
| CCc1ccc(Oc2nc3ccccc3s2)cc1C1=C(O)[C@@H]2CC[C@](C)(C1=O)C2(C)C [Example A-319] | 100 | 70 | 100 | 90 | 100 | 100 | 100 | 100 |  |  |  |  |  |  |  |  |
| CCc1ccc(Oc2ccc3cc(Cl)ccc3n2)cc1C1=C(O)[C@H]2CC[C@H](C2)C1=O [Example A-260] | 90 | 0 | 90 | 80 | 80 | 100 | 90 | 90 |  |  |  |  |  |  |  |  |
| CCc1ccc(Oc2ccc(Cl)c(F)c2)cc1C1=C(O)CC2(CCOCC2)CC1=O [Example A-66] | 80 | 90 | 100 | 100 | 80 | 100 | 100 | 100 |  |  |  |  |  |  |  |  |
| CCc1ccc(Oc2ccc3cc(Cl)ccc3n2)cc1C1=C(O)C(C)(C)OC(C)(C)C1=O [Example A-159] | 100 | 40 | 90 | 30 | 100 | 80 | 100 | 80 |  |  |  |  |  |  |  |  |
| CCc1ccc(Oc2ccc(C#N)cc2C(F)(F)F)cc1C1=C(O)CC(C)(C)CC1=O [Example A-290] | 0 | 0 | 20 | 0 | 10 | 0 | 60 | 0 |  |  |  |  |  |  |  |  |
| CCCC(=O)OC1=C(c2cc(Oc3ccc(C#N)cc3F)ccc2CC)C(=O)C(C)(C)OC1(C)C [Example P-3] |  |  |  |  |  |  |  |  | 100 | 70 | 100 | 70 | 90 | 60 | 100 | 90 |
| CCc1ccc(Oc2ccc(F)cc2Cl)cc1C1=C(O)CCCC1=O [Example A-39] | 30 | 0 | 40 | 30 | 30 | 0 | 70 | 30 |  |  |  |  |  |  |  |  |
| CCc1ccc(Oc2ccc(F)cc2)cc1C1=C(O)C(C)(C)OC(C)(C)C1=O [Example A-22] | 60 | 10 | 80 | 20 | 30 | 30 | 100 | 20 |  |  |  |  |  |  |  |  |
| CCc1ccc(Oc2ncc(C(F)(F)F)cc2Cl)cc1C1=C(O)CC2(CCOCC2)CC1=O [Example A-272] | 100 | 100 | 100 | 100 | 70 | 90 | 100 | 90 |  |  |  |  |  |  |  |  |
| CCc1ccc(Oc2cc(Cl)ncn2)cc1C1=C(O)C(C)(C)OC(C)(C)C1=O [Example A-98] | 60 | 20 | 80 | 40 | 30 | 60 | 100 | 70 |  |  |  |  |  |  |  |  |
| CCc1ccc(Oc2ccc(C(F)(F)F)c(Cl)c2)cc1C1=C(O)C(C)(C)OC(C)(C)C1=O [Example A-101] | 90 | 80 | 90 | 60 | 100 | 90 | 100 | 100 |  |  |  |  |  |  |  |  |
| CCc1ccc(Oc2ccc(Cl)cc2)cc1C1=C(O)C(C)(C)CCC1=O [Example A-50] | 70 | 0 | 100 | 0 | 60 | 0 | 50 | 0 |  |  |  |  |  |  |  |  |
| CCc1ccc(Oc2ccc([N+](=O)[O-])cc2)cc1C1=C(O)C(C)(C)OC(C)(C)C1=O [Example A-195] | 40 | 0 | 100 | 30 | 80 | 60 | 100 | 60 |  |  |  |  |  |  |  |  |
| CCc1ccc(Oc2nc3c(Cl)cc(Cl)cc3s2)cc1C1=C(O)[C@@H]2CC[C@](C)(C1=O)C2(C)C [Example A-328] | 90 | 30 | 100 | 50 | 70 | 80 | 100 | 60 |  |  |  |  |  |  |  |  |
| CCc1ccc(Oc2ccc(Cl)cc2)cc1C1=C(O)CC(C)(C)CC1=O [Example A-26] | 80 | 40 | 100 | 70 | 70 | 40 | 100 | 80 |  |  |  |  |  |  |  |  |
| CCc1ccc(Oc2ccc3ccccc3n2)cc1C1=C(O)[C@@H]2CC[C@](C)(C1=O)C2(C)C [Example A-321] | 90 | 50 | 100 | 70 | 90 | 90 | 100 | 90 |  |  |  |  |  |  |  |  |
| CCc1ccc(Oc2ccccc2F)cc1C1=C(O)C(C)(C)OC(C)(C)C1=O [Example A-13] | 0 | 0 | 0 | 0 | 0 | 0 | 70 | 0 |  |  |  |  |  |  |  |  |
| CCc1ccc(Oc2cc(F)cc(F)c2C#N)cc1C1=C(O)C(C)(C)OC(C)(C)C1=O [Example A-206] | 10 | 0 | 30 | 0 | 50 | 30 | 70 | 20 |  |  |  |  |  |  |  |  |
| CCc1ccc(Oc2ccc(Br)c(C)c2)cc1C1=C(O)C(C)(C)OC(C)(C)C1=O [Example A-11] | 0 | 0 | 0 | 0 | 50 | 20 | 60 | 50 |  |  |  |  |  |  |  |  |
